Seven compounds from publication PMC8703412 (Pharmaceuticals, 2021) can be followed below.

Values after ≈ are worked out from the molar mass of the structure shown. Read-outs that look alike come from different tables or passages of the source.

Series [1] has as its system Mycobacterium tuberculosis strain 331/88 (i.e., H37Rv). In words: MIC micromethod in Šula's medium, drug-susceptible Mtb. Type of series: cell-based.
Series [2] relates to Mycobacterium avium 330/88. Nature of the series: MIC micromethod in Šula's medium, M. avium. Type of series: cell-based.
For series [3], the system named is Mycobacterium kansasii 6509/96 (clinical isolate). In words: MIC micromethod in Šula's medium, M. kansasii. Type of series: cell-based.
The test system of another series is Mtb. H37Ra pMV261/pVV16. In words: microbe, parasite or virus in culture. Format: cell-based, Mycobacterium tuberculosis.
A further series concerns Mtb. H37Ra pMV261-inhA. Nature of the series: microbe, parasite or virus in culture. Type of series: cell-based, Mycobacterium tuberculosis.
Series [4] has as its system Mtb. H37Ra pVV16-katGsmeg. In words: microbe, parasite or virus in culture. Format: cell-based. The conditions noted are these: Mycobacterium tuberculosis, 672 h, read-out: MIC H37Ra pVV16-katGsmeg.
Series [5] is described as follows: Cytotoxicity, CellTiter 96 (MTS) assay. The note with it: human, Cytotoxicity for HepG2 cells, IC50, 24 h incubation, 1–1000 µM.
A further series deals with HepG2 cells. In words: Cytotoxicity, CellTiter 96 (MTS) assay. The note with it: read-out: Cytotoxicity for HepG2 cells, IC50; 24 h incubation, 1–1000 µM.
Where [6] appears, read: Mycobacterium tuberculosis, H37RV, 336 h, 14 d incubation, esters, Table 1, read-out: MIC Mtb. 331/88 14 d.
Where [7] appears, read: Mycobacterium tuberculosis, H37RV, 504 h, 21 d incubation, esters, Table 1, read-out: MIC Mtb. 331/88 21 d.
Setting [8] is: Mycobacterium avium, 330/88, 336 h, 14 d incubation, Table 1, read-out: MIC M. avium 330/88 14 d.
The mark [9] stands for this setting: Mycobacterium avium, 330/88, 504 h, 21 d incubation, Table 1, read-out: MIC M. avium 330/88 21 d.
[10] abbreviates: Mycobacterium kansasii, 168 h, 7 d incubation, Table 1, read-out: MIC M. kansasii 6509/96 7 d.
The mark [11] stands for this setting: Mycobacterium kansasii, 336 h, 14 d incubation, Table 1, read-out: MIC M. kansasii 6509/96 14 d.
The mark [12] stands for this setting: Mycobacterium kansasii, 504 h, 21 d incubation, Table 1, read-out: MIC M. kansasii 6509/96 21 d.
The mark [13] stands for this setting: Mycobacterium kansasii, 504 h, text summary over 7, 14 and 21 d, read-out: MIC for M. kansasii 6509/96.

For `C/C(=N\NC(=O)c1ccncc1)C(=O)Oc1cccc2cccnc12` [3m, Quinolin-8-yl (E)-2-(2-isonicotinoylhydrazineylidene)propanoate], the melting point (usually the temperature of the solid-liquid transition) lay within 159.3 to 160.4 °C. In addition, the MIC in series [1] (setting [6]) came out at 0.25 µM (≈ 0.0836 µg/mL). Moreover, the MIC in series [1] (setting [7]) is 0.5 µM (≈ 0.167 µg/mL). Moreover, in series [1] (Mycobacterium tuberculosis, H37RV, Table 4, read-out: MIC H37Rv), the MIC came out at 0.25 µM (≈ 0.0836 µg/mL). Moreover, the MIC in series [2] (setting [8]) was determined as 32 µM (≈ 10.7 µg/mL). Besides, in [2] (Mycobacterium avium, 330/88, 504 h, 14 and 21 d, read-out: MIC for M. avium), the MIC fell in the range of 32 to 64 µM (≈ 10.7 to 21.4 µg/mL). Also, the MIC in series [2] (setting [9]) turned out to be 64 µM (≈ 21.4 µg/mL). In addition, the MIC in [3] (setting [10]) stood at 2 µM (≈ 0.669 µg/mL). In addition, the MIC in series [3] (setting [11]) stood at 4 µM (≈ 1.34 µg/mL). Besides, the MIC in series [3] (setting [12]) came out at 4 µM (≈ 1.34 µg/mL). Further, the “MIC H37Ra pMV261/pVV16” value against Mtb. H37Ra pMV261/pVV16 was determined as 0.25. Also, the MIC in the series with Mtb. H37Ra pMV261/pVV16 (Mycobacterium tuberculosis, H37RA, 672 h, read-out: MIC H37Ra pMV261/pVV16) was found to be 0.25 µM (≈ 0.0836 µg/mL). In the series with Mtb. H37Ra pMV261-inhA, this compound gave an MIC H37Ra pMV261-inhA of 5 µM. The MIC with Mtb. H37Ra pMV261-inhA (Mycobacterium tuberculosis, H37RA, 672 h, read-out: MIC H37Ra pMV261-inhA) turned out to be 5 µM (≈ 1.67 µg/mL). Besides, the MIC in series [4] came to 0.125 µM (≈ 0.0418 µg/mL). The IC50 – broadly, the point on the concentration scale where inhibition reaches its midpoint – at 24 h in [5] is 247 µM.

The compound `C/C(=N\NC(=O)c1ccncc1)C(=O)Oc1cccc2ccccc12` [3i, Naphthalen-1-yl (E)-2-(2-isonicotinoylhydrazineylidene)propanoate] came in with a melting point of 181.1 to 182.5 °C. The MIC in [1] (setting [6]) turned out to be 0.25 µM (≈ 0.0833 µg/mL). The MIC in series [1] (setting [7]) turned out to be 0.25 µM (≈ 0.0833 µg/mL). The MIC in series [2] (setting [8]) was 125 µM (≈ 41.7 µg/mL). The MIC in [2] (setting [9]) came out at 250 µM (≈ 83.3 µg/mL). Also, the MIC in series [3] (setting [10]) was 0.25 µM (≈ 0.0833 µg/mL). In addition, the MIC in [3] (setting [11]) came to 0.25 µM (≈ 0.0833 µg/mL). In series [3] (setting [12]), the MIC turned out to be 0.25 µM (≈ 0.0833 µg/mL). Also, the MIC in series [3] (setting [13]) is ≤ 0.5 µM. Also, 999 µM corresponded to half-maximal inhibition in series [5] (IC50 at 24 h). In the series on HepG2 cells, the IC50 is > 500 µM.

`C/C(=N\NC(=O)c1ccncc1)C(=O)Oc1ccccc1` [3b, Phenyl (E)-2-(2-isonicotinoylhydrazineylidene)propanoate] came in with a melting point of 186 to 189 °C. Further, the MIC in series [1] (setting [6]) was 0.125 µM (≈ 0.0354 µg/mL). Also, in series [1] (setting [7]), the MIC was 0.25 µM (≈ 0.0708 µg/mL). For the same compound, the MIC in series [2] (setting [8]) is > 250 µM. In addition, the MIC in series [2] (setting [9]) is > 250 µM. Moreover, the MIC in [3] (setting [10]) amounted to 8 µM (≈ 2.27 µg/mL). The MIC in series [3] (setting [11]) was found to be 8 µM (≈ 2.27 µg/mL). Besides, the MIC in [3] (setting [12]) was 8 µM (≈ 2.27 µg/mL). In series [5], the IC50 at 24 h was > 1000 µM.

Turning to `COc1ccc(OC(=O)/C(C)=N/NC(=O)c2ccncc2)cc1` [3d, 4-Methoxyphenyl (E)-2-(2-isonicotinoylhydrazineylidene)propanoate], the melting point was 169 to 172 °C. Further, the MIC in series [1] (setting [6]) came to 0.25 µM (≈ 0.0783 µg/mL). The MIC in series [1] (setting [7]) was determined as 0.25 µM (≈ 0.0783 µg/mL). Moreover, the MIC in series [2] (setting [8]) was 500 µM (≈ 157 µg/mL). The MIC in series [2] (setting [9]) turned out to be 1000 µM (≈ 313 µg/mL). The MIC in series [3] (setting [10]) was found to be 4 µM (≈ 1.25 µg/mL). Also, the MIC in series [3] (setting [11]) worked out at 8 µM (≈ 2.51 µg/mL). Moreover, the MIC in series [3] (setting [12]) stood at 8 µM (≈ 2.51 µg/mL). Moreover, the IC50 at 24 h in series [5] was > 1000 µM.

With `C/C(=N\NC(=O)c1ccncc1)C(=O)Oc1ccc2ccccc2c1` [3j, Naphthalen-2-yl (E)-2-(2-isonicotinoylhydrazineylidene)propanoate], the melting point was in the range of 116 to 117.2 °C. Also, the MIC in series [1] (setting [6]) was found to be 0.25 µM (≈ 0.0833 µg/mL). Moreover, in series [1] (setting [7]), the MIC was 0.25 µM (≈ 0.0833 µg/mL). Besides, the MIC in series [2] (setting [8]) is 125 µM (≈ 41.7 µg/mL). In addition, in series [2] (setting [9]), the MIC turned out to be 250 µM (≈ 83.3 µg/mL). Besides, in series [3] (setting [10]), the MIC is 0.25 µM (≈ 0.0833 µg/mL). For the same compound, the MIC in series [3] (setting [11]) was 0.25 µM (≈ 0.0833 µg/mL). In [3] (setting [12]), the MIC stood at 0.5 µM (≈ 0.167 µg/mL). Further, the MIC in [3] (setting [13]) is ≤ 0.5 µM. The compound also registered an IC50 at 24 h in series [5] of 682 µM. Also, the half-maximal inhibitory concentration (IC50) in the series with HepG2 cells is > 500 µM.

“5-Isopropyl-2-methylphenyl (E)-2-(2-isonicotinoylhydrazineylidene)propanoate [3k]”: the MIC worked out at 0.25 µM in [1] (14 d incubation, esters, Table 1, read-out: MIC Mtb. 331/88 14 d); 0.25 µM in [1] (21 d incubation, esters, Table 1, read-out: MIC Mtb. 331/88 21 d); 500 µM in series [2] (14 d incubation, Table 1, read-out: MIC M. avium 330/88 14 d); 1000 µM in series [2] (21 d incubation, Table 1, read-out: MIC M. avium 330/88 21 d); 8 µM in series [3] (7 d incubation, Table 1, read-out: MIC M. kansasii 6509/96 7 d); 16 µM in [3] (14 d incubation, Table 1, read-out: MIC M. kansasii 6509/96 14 d). Further, the MIC in [3] (21 d incubation, Table 1, read-out: MIC M. kansasii 6509/96 21 d) is listed as 16 µM. Moreover, in series [3] (M. kansasii 6509/96), the “fold lower activity than isomer 3l” value was 64 ×. Moreover, the IC50 in the series with HepG2 cells was > 500 µM.

In the case of `C/C(=N\NC(=O)c1ccncc1)C(=O)Oc1ccc(F)cc1` [3f, 4-Fluorophenyl (E)-2-(2-isonicotinoylhydrazineylidene)propanoate], the melting point was 174.1 to 177.2 °C. Moreover, the MIC in series [1] (setting [6]) turned out to be 0.25 µM (≈ 0.0753 µg/mL). Besides, the MIC in series [1] (setting [7]) is 0.5 µM (≈ 0.151 µg/mL). Also, the MIC in series [2] (setting [8]) was 500 µM (≈ 151 µg/mL). Besides, in series [2] (setting [9]), the MIC turned out to be 500 µM (≈ 151 µg/mL). For the same compound, in series [3] (setting [10]), the MIC is 2 µM (≈ 0.603 µg/mL). Also, the MIC in series [3] (setting [11]) came to 4 µM (≈ 1.21 µg/mL). Moreover, the MIC in [3] (setting [12]) stood at 4 µM (≈ 1.21 µg/mL). The IC50 at 24 h in series [5] was > 1000 µM.
